Assay results published in patent US10251395B2, “Substituted furano-/thienocycloalkylamino-2-pyrimidine derivatives and use thereof for controlling undesired plant growth” (Bayer CropScience Aktiengesellschaft, priority 2015, dated 2019).

How the values were obtained:
Stellaria media [1] = test: Post-emergence herbicidal effect; assay type: in vivo; conditions: assessed visually after about 3 weeks vs untreated controls
Outline: (§1)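 Sow in sandy loam; grow in greenhouse 2–3 wk; spray one-leaf plants with WP or EC suspension/emulsion (600–800 L/ha water, 0.2% wetter); hold ~3 wk under optimal conditions; rate visually vs untreated (0–100%).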

Echinochloa crus-galli [2] = test: Post-emergence herbicidal effect; assay type: in vivo; conditions: assessed visually after about 3 weeks vs untreated controls
Outline: as §1

Setaria viridis [3] = test: Post-emergence herbicidal effect; assay type: in vivo; conditions: assessed visually after about 3 weeks vs untreated controls
Outline: as §1

Ipomoea purpurea [4] = test: Post-emergence herbicidal effect; assay type: in vivo; conditions: assessed visually after about 3 weeks vs untreated controls
Outline: as §1

Amaranthus retroflexus [5] = test: Post-emergence herbicidal effect; assay type: in vivo; conditions: assessed visually after about 3 weeks vs untreated controls
Outline: as §1

Polygonum convolvulus [6] = test: Post-emergence herbicidal effect; assay type: in vivo; conditions: assessed visually after about 3 weeks vs untreated controls
Outline: as §1

Viola tricolor [7] = test: Post-emergence herbicidal effect; assay type: in vivo; conditions: assessed visually after about 3 weeks vs untreated controls
Outline: as §1

Alopecurus myosuroides [8] = test: Post-emergence herbicidal effect; assay type: in vivo; conditions: 320 g/ha, assessed visually after about 3 weeks vs untreated controls
Outline: as §1

Abutilon theophrasti [9] = test: Post-emergence herbicidal effect; assay type: in vivo; conditions: assessed visually after about 3 weeks vs untreated controls
Outline: as §1

Matricaria inodora [10] = test: Post-emergence herbicidal effect; assay type: in vivo; conditions: 320 g/ha, assessed visually after about 3 weeks vs untreated controls
Outline: as §1

Echinochloa crus-galli [11] = test: Pre-emergence herbicidal effect; assay type: in vivo; conditions: scored visually after 3 weeks
Outline: (§2)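 Pre-em soil-surface spray; sandy loam, seeds covered with soil. WP/EC, aq. suspension/emulsion, 600–800 L/ha, +0.2% wetting agent. GH 3 wk; visual % activity vs untreated (100% = dead).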

Setaria viridis [12] = test: Pre-emergence herbicidal effect; assay type: in vivo; conditions: scored visually after 3 weeks
Outline: as §2

Ipomoea purpurea [13] = test: Pre-emergence herbicidal effect; assay type: in vivo; conditions: scored visually after 3 weeks
Outline: as §2

Amaranthus retroflexus [14] = test: Pre-emergence herbicidal effect; assay type: in vivo; conditions: scored visually after 3 weeks
Outline: as §2

Cyperus esculentus = test: Pre-emergence herbicidal effect; assay type: in vivo; conditions: scored visually after 3 weeks
Outline: as §2

Polygonum convolvulus [15] = test: Pre-emergence herbicidal effect; assay type: in vivo; conditions: scored visually after 3 weeks
Outline: as §2

Viola tricolor [16] = test: Pre-emergence herbicidal effect; assay type: in vivo; conditions: scored visually after 3 weeks
Outline: as §2

Avena fatua [17] = test: Pre-emergence herbicidal effect; assay type: in vivo; conditions: scored visually after 3 weeks
Outline: as §2

Alopecurus myosuroides [18] = test: Pre-emergence herbicidal effect; assay type: in vivo; conditions: scored visually after 3 weeks
Outline: as §2

Abutilon theophrasti [19] = test: Pre-emergence herbicidal effect; assay type: in vivo; conditions: scored visually after 3 weeks
Outline: as §2

Matricaria inodora [20] = test: Pre-emergence herbicidal effect; assay type: in vivo; conditions: scored visually after 3 weeks
Outline: as §2

Veronica persica [21] = test: Post-emergence herbicidal effect; assay type: in vivo; conditions: 320 g/ha, assessed visually after about 3 weeks vs untreated controls
Outline: as §1

Avena fatua [22] = test: Post-emergence herbicidal effect; assay type: in vivo; conditions: 320 g/ha, assessed visually after about 3 weeks vs untreated controls
Outline: as §1

Lolium multiflorum = test: Post-emergence herbicidal effect; assay type: in vivo; conditions: assessed visually after about 3 weeks vs untreated controls
Outline: as §1

Stellaria media [23] = test: Pre-emergence herbicidal effect; assay type: in vivo; conditions: scored visually after 3 weeks
Outline: as §2

Veronica persica [24] = test: Pre-emergence herbicidal effect; assay type: in vivo; conditions: scored visually after 3 weeks
Outline: as §2

logP (HCOOH) = assay type: physicochemical; conditions: HCOOH
Text: Table 2 (physicochemical characterization of selected synthesis examples)

Row | Compound | post-emergence efficacy STEME (Stellaria media [1]; 320 g/ha) [%] | post-emergence efficacy ECHCG (Echinochloa crus-galli [2]; 320 g/ha) [%] | post-emergence efficacy SETVI (Setaria viridis [3]; 320 g/ha) [%] | post-emergence efficacy PHBPU (Ipomoea purpurea [4]; 320 g/ha) [%] | post-emergence efficacy AMARE (Amaranthus retroflexus [5]; 320 g/ha) [%] | post-emergence efficacy POLCO (Polygonum convolvulus [6]; 320 g/ha) [%] | post-emergence efficacy VIOTR (Viola tricolor [7]; 320 g/ha) [%] | post-emergence efficacy ALOMY (Alopecurus myosuroides [8]) [%] | post-emergence efficacy ABUTH (Abutilon theophrasti [9]; 320 g/ha) [%] | post-emergence efficacy MATIN (Matricaria inodora [10]) [%] | ECHCG pre-emergence efficacy (herbicidal activity) (Echinochloa crus-galli [11]; Dosage 80 g/ha) [%] | ECHCG pre-emergence efficacy (herbicidal activity) (Echinochloa crus-galli [11]; Dosage 320 g/ha) [%] | SETVI pre-emergence efficacy (herbicidal activity) (Setaria viridis [12]; Dosage 80 g/ha) [%] | SETVI pre-emergence efficacy (herbicidal activity) (Setaria viridis [12]; Dosage 320 g/ha) [%] | AMARE pre-emergence efficacy (herbicidal activity) (Amaranthus retroflexus [14]; Dosage 80 g/ha) [%] | AMARE pre-emergence efficacy (herbicidal activity) (Amaranthus retroflexus [14]; Dosage 320 g/ha) [%] | POLCO pre-emergence efficacy (herbicidal activity) (Polygonum convolvulus [15]; Dosage 320 g/ha) [%] | VIOTR pre-emergence efficacy (herbicidal activity) (Viola tricolor [16]; Dosage 80 g/ha) [%] | VIOTR pre-emergence efficacy (herbicidal activity) (Viola tricolor [16]; Dosage 320 g/ha) [%] | ALOMY pre-emergence efficacy (herbicidal activity) (Alopecurus myosuroides [18]; Dosage 320 g/ha) [%] | other results
1 | Cc1cc2c(s1)CCCC2Nc1nc(N)c(Br)c(C(F)F)n1 (racemic) [compound 284] | 100 | 80 | 100 | 100 | 80 | 100 | 90 | 100 | 90 | 80 | 80 | 100 | 100 | 100 | 100 | 100 | 100 | 100 | 100 | 80 | post-emergence efficacy STEME (Stellaria media [1]; 80 g/ha): 100%; post-emergence efficacy SETVI (Setaria viridis [3]; 80 g/ha): 90%; post-emergence efficacy PHBPU (Ipomoea purpurea [4]; 80 g/ha): 90%; post-emergence efficacy AMARE (Amaranthus retroflexus [5]; 80 g/ha): 80%; post-emergence efficacy VIOTR (Viola tricolor [7]; 80 g/ha): 60%; post-emergence efficacy ABUTH (Abutilon theophrasti [9]; 80 g/ha): 90%; PHBPU pre-emergence efficacy (herbicidal activity) (Ipomoea purpurea [13]; Dosage 80 g/ha): 50%; PHBPU pre-emergence efficacy (herbicidal activity) (Ipomoea purpurea [13]; Dosage 320 g/ha): 50%; CYPES pre-emergence efficacy (herbicidal activity) (Cyperus esculentus; Dosage 80 g/ha): 90%; CYPES pre-emergence efficacy (herbicidal activity) (Cyperus esculentus; Dosage 320 g/ha): 100%; POLCO pre-emergence efficacy (herbicidal activity) (Polygonum convolvulus [15]; Dosage 80 g/ha): 90%; AVEFA pre-emergence efficacy (herbicidal activity) (Avena fatua [17]; Dosage 80 g/ha): 50%; AVEFA pre-emergence efficacy (herbicidal activity) (Avena fatua [17]; Dosage 320 g/ha): 70%; ALOMY pre-emergence efficacy (herbicidal activity) (Alopecurus myosuroides [18]; Dosage 80 g/ha): 70%; ABUTH pre-emergence efficacy (herbicidal activity) (Abutilon theophrasti [19]; Dosage 80 g/ha): 20%; ABUTH pre-emergence efficacy (herbicidal activity) (Abutilon theophrasti [19]; Dosage 320 g/ha): 80%; MATIN pre-emergence efficacy (herbicidal activity) (Matricaria inodora [20]; Dosage 80 g/ha): 100%; MATIN pre-emergence efficacy (herbicidal activity) (Matricaria inodora [20]; Dosage 320 g/ha): 100%
2 | Cc1cc2c(s1)CC(C)C2Nc1ncc(S(C)(=O)=O)c(N)n1 (racemic) [compound 17] | 100 | 100 | 100 | 0 | 100 | 80 | 90 | 90 | 100 | 80 | 100 | 100 | 60 | 100 | 100 | 100 | 100 | 100 | 100 | 100 | post-emergence efficacy ECHCG (Echinochloa crus-galli [2]; 80 g/ha): 80%; post-emergence efficacy VERPE (Veronica persica [21]): 100%; post-emergence efficacy POLCO (Polygonum convolvulus [6]; 80 g/ha): 80%; post-emergence efficacy AVEFA (Avena fatua [22]): 100%; post-emergence efficacy LOLMU (Lolium multiflorum; 80 g/ha): 90%; post-emergence efficacy LOLMU (Lolium multiflorum; 320 g/ha): 100%; STEME pre-emergence efficacy (herbicidal activity) (Stellaria media [23]; Dosage 80 g/ha): 100%; STEME pre-emergence efficacy (herbicidal activity) (Stellaria media [23]; Dosage 320 g/ha): 100%; VERPE pre-emergence efficacy (herbicidal activity) (Veronica persica [24]; Dosage 80 g/ha): 100%; VERPE pre-emergence efficacy (herbicidal activity) (Veronica persica [24]; Dosage 320 g/ha): 100%; ABUTH pre-emergence efficacy (herbicidal activity) (Abutilon theophrasti [19]; Dosage 80 g/ha): 80%; ABUTH pre-emergence efficacy (herbicidal activity) (Abutilon theophrasti [19]; Dosage 320 g/ha): 100%; MATIN pre-emergence efficacy (herbicidal activity) (Matricaria inodora [20]; Dosage 80 g/ha): 100%; MATIN pre-emergence efficacy (herbicidal activity) (Matricaria inodora [20]; Dosage 320 g/ha): 100%; logP (HCOOH) (logP (HCOOH)): oily; logP (HCOOH): 2.11; 1H NMR (CDCl3, 400 MHZ, δ in ppm): 1.30 (d, 3H, 3H of
